Data from US11078232B2, “Preparation and use of molecular site targeted and activated kinase inhibitor” (Yafei Shanghai Biology Medicine Science & Technology Co. …, priority 2017, dated 2021).

Columns and labels:
[1] = MTD (maximum tolerated dose) acute toxicity in mice; format: in vivo, mouse; settings: female, mouse, in vivo; BALB/C mice, intravenous, observed 17 days
Source text: (§1) Test purpose: to investigate the acute toxicity of highly activated compounds by targeted site molecules of the invention by measuring the MTD (maximum tolerated dose) experiment in mice.
(§2) The injections of each drug and the control drug were uniformly dissolved using water for injection, and diluted to the corresponding dose with physiological saline during the test.
(§3) Methods and results: […] BALB/C mice, weighing 19-21 g, were randomly divided into 10 groups, with 10 mice in each group. […] A control test of the saline group and the adriamycin group injection (commercially available, Beijing Yue kang) was carried out, and the injection volume of each mouse was 0.2 ml. […] On the D3, D5, and D14, blood samples were taken for whole blood count.

BALB/C mouse = assay: as above; format: in vivo; settings: intravenous; for Number of deaths: 10 mice per group; for Death dose: observed 17 days
Source text: as §1, §2, §3

CT26 tumor cells [2] = assay: CT26 treatment model (Example 17); format: in vivo, mice; settings: CT26 model as in Example 15
Procedure: (§4) 1) CT26 tumor cells were purchased from ATCC, and the cells were cultured using a 10% fetal bovine serum DMEM medium at 37° C., 5% CO2. The cells were passaged every 3 days and the cells were used within 15 generations.
(§5) 2) Tumor production: 10^6 live CT26 tumor cells were injected subcutaneously into the back of tumor-immunized […], and treatment was started when the tumor grew to about 0.3-0.4 cm. The tumor size (mm^3) of the mice was recorded and compared with the solvent control group. The tumor inhibition rate on day 42 was calculated in the solvent control group.
(§6) 3) Treatment process: IV injection is used, and the drug is used at a dose of ⅓ MTD once a week Immunosuppressive IV injection treatment once a week for a total of 6 weeks of treatment.
(§7) 4) The cure rate of 10 in each group was counted. After 50 days, the cured mice and wild groups were inoculated […] to detect recurrence.
The CT26 immunotherapy model was constructed as in Example 15, and the pharmacodynamic and immunotherapeutic effects of the compounds S4-S6, S9-S12 and S15-S18 in the CT26 treatment model were tested.

D121 lung cancer cells = assay: D121 lung cancer immunotherapy model; settings: single agent
Procedure: (1) D121 lung cancer cells purchased from ATCC were cultured in DMEM medium containing 10% fetal bovine serum at 37° C. and 5% CO2, and the cells were digested with EDTA trypsin according to routine use, and passed two to three times a week for placement.
(2) Animals: C57 BALB/C mice, 6-8 weeks old, female, weighing about 18-22 g, purchased from Shanghai SLAC Laboratory Animal Co., Ltd.
3) Immunization: Mice were intraperitoneally injected with 100 μL of 5×10^5 D121 lung cancer cells that died by repeated freeze-thaw cycles, and immunized 3 times with an interval of 2 weeks.
4) Cell seeding: Collect the tumor cells in logarithmic growth phase, adjust the D121 cell concentration to (1×10^7/ml) with DMEM basal medium, 0.1 ml of the cell suspension was inoculated to the right side of each mouse subcutaneously with a 1 ml syringe. […] Tumor volume was observed and measured, and the average tumor volume reached 100-200 mm^3 about 7 days after inoculation, that is, tumor cell-bearing mice were grouped and administered. The immunized group in Table 9 was immunized with D121 lung cancer cells, and the D121 dead tumor cell immunized group was injected with physiological saline as a control.
The immunosuppressive regulatory point protein Anti-PD-L1 antibody was injected twice a week. A total of two weeks.
6) Experimental observation: During the whole experiment, the use and observation of experimental animals were carried out in accordance with the regulations of AAALAC. The experimental animals were observed daily after inoculation of tumor cells, and their onset and death were recorded. During the routine experiment, all experimental animals were monitored and recorded for behavior, feeding, water intake, weight change, hair shine and other abnormalities.
(7) Analysis of tumor CD8+ T cells (T lymphocyte subsets). Tumor tissues were ground and single cancer cells were isolated by filtration using 40 μm Nylon cell strainer, lysed twice with blood cell lysis buffer for 20 min, washed twice with 1% BSA-PBS buffer, centrifuged, and resuspended, and then the cells were counted again. 1×10^5 cells were incubated with leukocyte co-antigen CD45-PE and CD8-FITC-labeled antibody for 1 hour at room temperature in the dark, and then analyzed the proportion of T lymphocyte antigen (CD8) in leukocyte common antigen (CD45)-positive cells by flow cytometry.

aspartic endopeptidase = target: T1, aspartic endopeptidase (Homo sapiens, UniProt Q99538); assay: Activation efficiency by aspartic endopeptidase (HPLC); format: biochemical; settings: 1 mg/ml compound, enzyme 1 μmol/L, pH 6.0, 37° C., 2 hours; ratio of released product to original compound
T1 sequence (Q99538 18-323): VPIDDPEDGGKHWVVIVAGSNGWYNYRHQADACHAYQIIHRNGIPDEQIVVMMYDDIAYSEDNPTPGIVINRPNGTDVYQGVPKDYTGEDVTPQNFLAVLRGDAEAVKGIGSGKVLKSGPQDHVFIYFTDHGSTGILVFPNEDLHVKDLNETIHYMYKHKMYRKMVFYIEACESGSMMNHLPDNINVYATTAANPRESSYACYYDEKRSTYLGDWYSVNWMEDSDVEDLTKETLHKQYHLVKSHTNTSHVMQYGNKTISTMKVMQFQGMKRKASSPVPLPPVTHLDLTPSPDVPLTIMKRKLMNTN
Procedure: The sample compound and a portion of the control compound (herein, all of the control compounds can be synthesized by a method similar to that described in Examples 1-3) were uniformly diluted 10-fold to 1 mg/ml with the enzyme-digesting solution. In this experiment, 1 mg/ml of the sample compound was added to the aspartic endopeptidase (1 μmol/L, pH 6.0) at 37° C. for 2 hours. After the reaction, the enzyme digest was able to release the enzyme-digested product. The decrease in the compound and the increase in the product were examined by HPLC to compare the enzyme activation efficiency (the ratio of the product released by the enzyme cleavage to the original compound).

[3] = Solid stability, 60° C. for 10 days in the dark (HPLC); format: physicochemical; settings: solid, 60° C., 10 days, dark; for Stability(%): content versus time 0
Procedure: The test was carried out by leaving it at 60° C. for 10 days in the dark. The ratio of the change in the content of the compound to the compound at time 0 was measured by HPLC, and the stability value (%) was calculated.

CT26 tumor cells [4] = assay: CT26 immunotherapy model (Example 15); format: in vivo, mice; settings: for Cure rate % / Number of cures: 10 in each group; for Tumor inhibition rate % (Day 42): IV ⅓ MTD once a week, 6 weeks; for Recurrence rate % (Week 7): cured mice re-inoculated with CT26 cells after 50 days
Procedure: as §4, §5, §6, §7

Question: For CC(NC(=O)C(C)NC(=O)[C@H](O)[C@H](O)[C@@H](O[C@@H]1O[C@H](CO)[C@H](O)[C@H](O)[C@H]1O)[C@H](O)CO)C(=O)NC(CC(N)=O)C(=O)Nc1ccc(COC(=O)N2CC(C)(C)c3ccc(NC(=O)c4cccnc4NCc4ccncc4)cc32)cc1 (stereo partly shown) [Compound S6], which MTD at 17 days [1] is on record?
Answer: The MTD at 17 days was 280 mg/kg.

Question: What about the Number of deaths (BALB/C mouse) of the same compound?
Answer: Its Number of deaths is 1.

Question: What about the “Death dose” value (BALB/C mouse) of the same compound?
Answer: The value was 290 mg/kg.

Question: And the “CD8: CD45 (%)” value (CT26 tumor cells [2])?
Answer: Its value is 14.9%.

Question: What about the “Number of animals cured” value (CT26 tumor cells [2]) of the same compound?
Answer: Its value is 1.

Question: What about the “Recurrence rate/% (at week 10)” value (CT26 tumor cells [2]) of the same compound?
Answer: Its value is 0%.

Question: What about the “Tumor inhibition rate/% (at week 7)” value (CT26 tumor cells [2]) of the same compound?
Answer: The value was 66.7%.

Question: What about the “Tumor inhibition rate/% (week 7)” value (D121 lung cancer cells; i.v. ⅙ MTD once a week for 4 weeks) of the same compound?
Answer: The value was 73.4%.

Question: And the “CD8: CD45 (%)” value (D121 lung cancer cells; tumor CD8+ T cells among CD45-positive cells, flow cytometry)?
Answer: Its value is 14.4%.

Question: Which “Activation efficiencies (%)” value (aspartic endopeptidase) does the source give for CC(NC(=O)C(NC(=O)[C@H](O)[C@H](O)[C@@H](O[C@@H]1O[C@H](CO)[C@H](O)[C@H](O)[C@H]1O)[C@H](O)CO)C(C)C)C(=O)NC(CC(N)=O)C(=O)Nc1ccc(COC(=O)N(C)CCNC(=O)c2cc(Oc3ccc(NC(=O)Nc4ccc(Cl)c(C(F)(F)F)c4)cc3)ccn2)cc1 (stereo partly shown) [Compound S7, Lacto-VAN-PABC-compound a] here?
Answer: The value was 90.5%.

Question: And the “Stability verdict (stable / unstable)” value [3]?
Answer: Its value is “stable”.

Question: What about the “Stability(%)” value [3] of the same compound?
Answer: The value was 97.2%.

Question: What about the MTD at 17 days [1] of the same compound?
Answer: Its MTD at 17 days is 300 mg/kg.

Question: And the Number of deaths (BALB/C mouse)?
Answer: The Number of deaths was 1.

Question: What about the “Death dose” value (BALB/C mouse) of the same compound?
Answer: Its value is 345 mg/kg.

Question: And the Cure rate % (CT26 tumor cells [4])?
Answer: Its Cure rate % is 70%.

Question: What about the Number of cures (CT26 tumor cells [4]) of the same compound?
Answer: Its Number of cures is 7.

Question: What about the “Tumor inhibition rate % (Day 42)” value (CT26 tumor cells [4]) of the same compound?
Answer: The value was 84.7%.

Question: What about the “Recurrence rate % (Week 7)” value (CT26 tumor cells [4]) of the same compound?
Answer: The value was 0%.

Question: For CC(NC(=O)C(NC(=O)[C@H](O)[C@H](O)[C@@H](O[C@@H]1O[C@H](CO)[C@H](O)[C@H](O)[C@H]1O)[C@H](O)CO)C(C)C)C(=O)NC(CC(N)=O)C(=O)Nc1ccc(COC(=O)N(C)CCNC(=O)c2cc(Oc3ccc(NC(=O)Nc4ccc(Cl)c(C(F)(F)F)c4)c(F)c3)ccn2)cc1 (stereo partly shown) [Compound S8, Lacto-VAN-PABC-compound b], which “Activation efficiencies (%)” value (aspartic endopeptidase) is on record?
Answer: Its value is 93.7%.

Question: And the “Stability verdict (stable / unstable)” value [3]?
Answer: The value was “stable”.

Question: What about the “Stability(%)” value [3] of the same compound?
Answer: The value was 98.4%.

Question: And the MTD at 17 days [1]?
Answer: The MTD at 17 days was 280 mg/kg.

Question: What about the Number of deaths (BALB/C mouse) of the same compound?
Answer: Its Number of deaths is 2.

Question: And the “Death dose” value (BALB/C mouse)?
Answer: The value was 340 mg/kg.

Question: And the Cure rate % (CT26 tumor cells [4])?
Answer: Its Cure rate % is 70%.

Question: And the Number of cures (CT26 tumor cells [4])?
Answer: The Number of cures was 7.

Question: What about the “Tumor inhibition rate % (Day 42)” value (CT26 tumor cells [4]) of the same compound?
Answer: Its value is 73.4%.

Question: What about the “Recurrence rate % (Week 7)” value (CT26 tumor cells [4]) of the same compound?
Answer: The value was 0%.

Question: Which “Activation efficiencies (%)” value (aspartic endopeptidase) does the source give for CC(NC(=O)C(NC(=O)[C@H](O)[C@H](O)[C@@H](O[C@@H]1O[C@H](CO)[C@H](O)[C@H](O)[C@H]1O)[C@H](O)CO)C(C)O)C(=O)NC(CC(N)=O)C(=O)Nc1ccc(COC(=O)N(C)CCNC(=O)c2cc(Oc3ccc(NC(=O)Nc4ccc(Cl)c(C(F)(F)F)c4)cc3)ccn2)cc1 (stereo partly shown) [Compound S13, Lacto-TAN-PABC-compound a] here?
Answer: The value was 98.6%.

Question: And the “Stability verdict (stable / unstable)” value [3]?
Answer: Its value is “stable”.

Question: What about the “Stability(%)” value [3] of the same compound?
Answer: The value was 98.6%.

Question: What about the MTD at 17 days [1] of the same compound?
Answer: The MTD at 17 days was 320 mg/kg.

Question: What about the Number of deaths (BALB/C mouse) of the same compound?
Answer: Its Number of deaths is 2.

Question: And the “Death dose” value (BALB/C mouse)?
Answer: The value was 360 mg/kg.

Question: What about the Cure rate % (CT26 tumor cells [4]) of the same compound?
Answer: The Cure rate % was 80%.

Question: And the Number of cures (CT26 tumor cells [4])?
Answer: Its Number of cures is 8.

Question: And the “Tumor inhibition rate % (Day 42)” value (CT26 tumor cells [4])?
Answer: Its value is 79.7%.

Question: What about the “Recurrence rate % (Week 7)” value (CT26 tumor cells [4]) of the same compound?
Answer: Its value is 0%.

Question: Which “Activation efficiencies (%)” value (aspartic endopeptidase) does the source give for CC(NC(=O)C(NC(=O)[C@H](O)[C@H](O)[C@@H](O[C@@H]1O[C@H](CO)[C@H](O)[C@H](O)[C@H]1O)[C@H](O)CO)C(C)O)C(=O)NC(CC(N)=O)C(=O)Nc1ccc(COC(=O)N(C)CCNC(=O)c2cc(Oc3ccc(NC(=O)Nc4ccc(Cl)c(C(F)(F)F)c4)c(F)c3)ccn2)cc1 (stereo partly shown) [Compound S14, Lacto-TAN-PABC-compound b] here?
Answer: Its value is 99.5%.

Question: And the “Stability verdict (stable / unstable)” value [3]?
Answer: Its value is “stable”.

Question: What about the “Stability(%)” value [3] of the same compound?
Answer: Its value is 97.8%.

Question: What about the MTD at 17 days [1] of the same compound?
Answer: The MTD at 17 days was 310 mg/kg.

Question: What about the Number of deaths (BALB/C mouse) of the same compound?
Answer: The Number of deaths was 1.

Question: What about the “Death dose” value (BALB/C mouse) of the same compound?
Answer: The value was 350 mg/kg.

Question: And the Cure rate % (CT26 tumor cells [4])?
Answer: Its Cure rate % is 80%.

Question: What about the Number of cures (CT26 tumor cells [4]) of the same compound?
Answer: The Number of cures was 8.

Question: And the “Tumor inhibition rate % (Day 42)” value (CT26 tumor cells [4])?
Answer: The value was 85.%.

Question: And the “Recurrence rate % (Week 7)” value (CT26 tumor cells [4])?
Answer: The value was 0%.

Question: What does the source list for “Lacto-AAN-PABC-Paclitaxel [Compound C5, reference compound]”?
Answer: Activation efficiencies (%) (aspartic endopeptidase): 59.3%; Stability verdict (stable / unstable) [3]: unstable; Stability(%) [3]: 89.3%
